The values that follow come from patent US7759362B2, “Quinolonecarboxylic acid compounds, preparation methods and pharmaceutical uses thereof” (Institut of Medicinal Biotechnology Chinese Academy of …, priority 2004, dated 2010).

Molecules are shown by their SMILES. Converted amounts (≈) assume the structure as drawn. Some results are limits rather than exact numbers.

The nature of data set [1]: Acute oral toxicity in mice. To be noted: mouse, in vivo, male mice, deaths after 7 days, Bliss program. The protocol:
Toxicity experiments are carried out on the compounds prepared in embodiment 11, 13 and 15 to determine the acute oral toxicity of the present compounds. Solutions of the three compounds in different concentrations are administered to male mice at a dosage of 0.1 mL/10 g body weight, then the number of dead mice after 7 days is recorded, and lethal dose 50% (LD50) is calculated for each compound by Bliss program.

Data set [2] relates to P. aeruginosa 17. Nature of the data set: MIC, two-fold plate dilution method. It is filed as cell-based. To be noted: P. aeruginosa 17, Gram-negative; Muener-Hinton medium. An excerpt:
(§1) . The pharmaceutically acceptable salts or hydrates thereof have the same antibacterial activity.
(§2) Two-fold plate dilution method is used for determination of activity, with Muener-Hinton medium (DIFCO) as the culture medium and clinically isolated pathogenic strain, quality control strain and standard strain (provided by National Institute for the Control of Pharmaceutical and Biological Products) as test strains.

In data set [3] the test system is S. epidermidis 26069. Description: MIC, two-fold plate dilution method. In kind it is cell-based. Conditions: S. epidermidis 26069, Gram-positive; Muener-Hinton medium.
Source text: as §1, §2

Data set [4] relates to K. pneumoniae 14. Description: MIC, two-fold plate dilution method. In kind it is cell-based. Conditions: K. pneumoniae 14, Gram-negative; Muener-Hinton medium.
Source text: as §1, §2

The test system of data set [5] is S. pyogenes 26. Description: MIC, two-fold plate dilution method. To be noted: S. pyogenes 26, Gram-positive; Muener-Hinton medium. In kind it is cell-based.
Source text: as §1, §2

Data set [6] has as its system S. pneumoniae 98. Nature of the data set: MIC, two-fold plate dilution method. To be noted: S. pneumoniae 98, Gram-positive; Muener-Hinton medium. In kind it is cell-based.
Source text: as §1, §2

Data set [7] deals with S. pneumoniae 70. Nature of the data set: MIC, two-fold plate dilution method. In kind it is cell-based. To be noted: S. pneumoniae 70, Gram-positive; Muener-Hinton medium.
Source text: as §1, §2

The test system of data set [8] is K. pneumoniae 7. Nature of the data set: MIC, two-fold plate dilution method. It is filed as cell-based. To be noted: K. pneumoniae 7, Gram-negative; Muener-Hinton medium.
Source text: as §1, §2

The subject of data set [9] is Enterococcus 755. Description: MIC, two-fold plate dilution method. Conditions: Enterococcus 755, Gram-positive; Muener-Hinton medium. In kind it is cell-based.
Source text: as §1, §2

In data set [10] the test system is E. coli 26. Nature of the data set: MIC, two-fold plate dilution method. Conditions: E. coli 26, Gram-negative; Muener-Hinton medium. In kind it is cell-based.
Source text: as §1, §2

Data set [11] concerns E. coli ATTC 25922. Nature of the data set: MIC, two-fold plate dilution method. It is filed as cell-based. Conditions: E. coli ATTC 25922, Gram-negative; Muener-Hinton medium.
Source text: as §1, §2

The subject of data set [12] is S. aureus ATTC 25923. Nature of the data set: MIC, two-fold plate dilution method. It is filed as cell-based. Conditions: S. aureus ATTC 25923, Gram-positive; Muener-Hinton medium.
Source text: as §2

Data set [13] has as its system S. pneumoniae. To be noted: compared with gatifloxacin; cited from earlier work.

For orientation: LD50 means the dose at which mortality reaches 50%. By MIC is commonly meant the lowest concentration found to suppress growth. A low value points to greater potency. In the case of `Cl.O=C(O)c1cn(C2CC2)c2c(OC(F)F)c(N3C[C@@H]4CCCN[C@@H]4C3)c(F)cc2c1=O` (relative stereo) [Embodiment 15, 1-Cyclopropyl-8-difluoromethoxyl-7-[cis-2,8-diazabicyclo[4,3,0]nonane-8-yl]-6-fluoro-1,4-dihydro-4-oxoquinoline-3-carboxylic acid hydrochloride], the LD50 at 7 days in [1] is more than 4000 mg/kg. In addition, the MIC in data set [2] came to 0.5 µg/mL; in [3] it was 0.5 µg/mL; in data set [4] it was 0.03 µg/mL; in data set [5], 0.25 µg/mL; in [6], 0.125 µg/mL; in [7], 0.06 µg/mL. Also, the MIC in data set [8] came out at 0.03 µg/mL; in data set [9], 0.25 µg/mL; in data set [10] it was 0.03 µg/mL; in data set [11], 0.25 µg/mL; in data set [12], 0.125 µg/mL.

For the molecule `Nc1c(F)c(N2C[C@@H]3CCCN[C@@H]3C2)c(OC(F)F)c2c1c(=O)c(C(=O)O)cn2C1CC1` (relative stereo) [Embodiment 21, 5-Amino-1-cyclopropyl-8-difluoromethoxyl-7-(cis-2,8-diazabicyclo[4,3,0]nonane-8-yl)-6-fluoro-1,4-dihydro-4-oxoquinoline-3-carboxylic acid], the MIC in data set [2] came to 0.25 µg/mL (≈ 0.553 µM); in data set [3], 0.25 µg/mL (≈ 0.553 µM); in [4], 0.015 µg/mL (≈ 0.0332 µM); in data set [5], 0.25 µg/mL (≈ 0.553 µM); in data set [6], 0.03 µg/mL (≈ 0.0663 µM); in data set [7], 0.06 µg/mL (≈ 0.133 µM). Besides, the minimum inhibitory concentration (MIC) in data set [8] was 0.015 µg/mL (≈ 0.0332 µM); in [9], 0.25 µg/mL (≈ 0.553 µM); in data set [10], less than 0.007 µg/mL; in data set [11], less than 0.007 µg/mL; in [12], 0.03 µg/mL (≈ 0.0663 µM).

In data set [8], `O=C(O)c1cn(C2CC2)c2cc(N3CCNCC3)c(F)cc2c1=O` [Ciprofloxacin, ciprofloxacin, reference compound] had an MIC of 0.015 g/mL.

Turning to `Cl.O=C(O)c1cn(C2CC2)c2c(OC(F)F)c(N3C[C@@H]4CCCN[C@@H]4C3)c(F)cc2c1=O` [Embodiment 13, 1-cyclopropyl-8-difluoromethoxyl-7-[(1S,6S)-2,8-diazabicyclo[4,3,0]nonane-8-yl]-6-fluoro-1,4-dihydro-4-oxoquinoline-3-carboxylic acid hydrochloride], the LD50 at 7 days in data set [1] was more than 4000 mg/kg. Besides, the minimal inhibitory concentration (MIC) in [2] amounted to 0.25 µg/mL; in [3], 0.25 µg/mL; in [4], 0.015 µg/mL; in [5] it was 0.25 µg/mL; in [6] it was 0.015 µg/mL; in data set [7], 0.125 µg/mL. Also, the minimal inhibitory concentration (MIC) turned out to be 0.015 µg/mL in data set [8]; 0.25 µg/mL in [9]; 0.015 µg/mL in [10]; 0.015 µg/mL in data set [11]; 0.03 µg/mL in [12].

For the molecule `Cl.O=C(O)c1cn(C2CC2)c2c(OC(F)F)c(N3C[C@H]4CCCN[C@H]4C3)c(F)cc2c1=O` [Embodiment 14, 1-cyclopropyl-8-difluoromethoxyl-7-[(1R,6R)-2,8-diazabicyclo[4,3,0]nonane-8-yl]-6-fluoro-1,4-dihydro-4-oxoquinoline-3-carboxylic acid hydrochloride], the MIC in data set [2] was 1 µg/mL; in data set [3] it was 0.5 µg/mL; in [4], 0.03 µg/mL; in [5], 0.5 µg/mL; in [6], 0.015 µg/mL; in data set [7] it was 0.06 µg/mL. The minimum inhibitory concentration (MIC) was found to be 0.03 µg/mL in data set [8]; 0.25 µg/mL in data set [9]; 0.03 µg/mL in data set [10]; 0.015 µg/mL in data set [11]; 0.03 µg/mL in [12].

With `Cl.Nc1c(F)c(N2C[C@@H]3CCCN[C@@H]3C2)c(OC(F)F)c2c1c(=O)c(C(=O)O)cn2C1CC1` [Embodiment 17, 5-amino-1-cyclopropyl-8-difluoromethoxyl-7-[(1S,6S)-2,8-diazabicyclo[4,3,0]nonane-8-yl]-6-fluoro-1,4-dihydro-4-oxoquinoline-3-carboxylic acid hydrochloride], the LD50 at 7 days in data set [1] was more than 4000 mg/kg. Further, the MIC turned out to be 0.25 µg/mL in data set [2]; 0.25 µg/mL in [3]; 0.015 µg/mL in data set [4]; 0.25 µg/mL in [5]; 0.015 µg/mL in [6]; 0.015 µg/mL in [7]. Further, the MIC in data set [8] was found to be 0.015 µg/mL; in data set [9], 0.015 µg/mL; in data set [10], 0.015 µg/mL; in [11], 0.051 µg/mL; in data set [12], 0.03 µg/mL.

On to `Cl.Nc1c(F)c(N2C[C@H]3CCCN[C@H]3C2)c(OC(F)F)c2c1c(=O)c(C(=O)O)cn2C1CC1` [Embodiment 18, 5-Amino-1-cyclopropyl-8-difluoromethoxyl-7-[(1R,6R)-2,8-diazabicyclo[4,3,0]nonane-8-yl]-6-fluoro-1,4-dihydro-4-oxoquinoline-3-carboxylic acid hydrochloride], for which the minimum inhibitory concentration (MIC) in [2] was determined as 0.25 µg/mL; in data set [3], 0.25 µg/mL; in [4], 0.015 µg/mL; in data set [5], 0.25 µg/mL; in data set [6] it was 0.125 µg/mL; in [7] it was 0.03 µg/mL. Moreover, the MIC in data set [8] was found to be 0.015 µg/mL; in data set [9], 0.06 µg/mL; in data set [10], 0.015 µg/mL; in [11], 0.015 µg/mL; in data set [12], 0.06 µg/mL.

As to `C[C@H]1NCc2cc(-c3ccc4c(=O)c(C(=O)O)cn(C5CC5)c4c3OC(F)F)ccc21` [Embodiment T-3811], in data set [13], the “in vitro activity against S. pneumoniae (in words)” value is “enhanced in vitro activity against S. pneumoniae, even superior to gatifloxacin”.

Take `COc1c(N2C[C@@H]3CCCN[C@@H]3C2)c(F)cc2c(=O)c(C(=O)O)cn(C3CC3)c12` [Moxifloxacin, moxifloxacin, reference compound]: the minimum inhibitory concentration (MIC) was determined as 0.5 µg/mL (≈ 1.25 µM) in [2]; 0.5 µg/mL (≈ 1.25 µM) in data set [3]; 0.03 µg/mL (≈ 0.0747 µM) in [4]; 0.5 µg/mL (≈ 1.25 µM) in data set [5]; 0.125 µg/mL (≈ 0.311 µM) in data set [6]; 0.125 µg/mL (≈ 0.311 µM) in data set [7]. Further, the MIC came to 0.03 µg/mL (≈ 0.0747 µM) in data set [8]; 0.5 µg/mL (≈ 1.25 µM) in [9]; 0.03 µg/mL (≈ 0.0747 µM) in [10]; 0.03 µg/mL (≈ 0.0747 µM) in [11]; 0.06 µg/mL (≈ 0.149 µM) in data set [12].
